Measurements: ChEMBL document CHEMBL4390649, “Fine-tuning the neuroprotective and blood-brain barrier permeability profile of multi-target agents designed to prevent progressive mitochondrial dysfunction” (Eur J Med Chem, 2019)
Activity calls are given as the source filed them. The rule behind the calls is not given here.

Assays:
[1] = Metal chelating activity assessed as compound-Fe2+ complex formation at 100 uM incubated for 10 mins by ferrozine spectrophotometric assay
[2] = Apparent permeability across apical to basolateral side in human CMEC/D3 cells at 100 uM incubated by UV-VIS spectroscopic method; assay type: ADME, cell-based; settings: hcmec/d3, 100 µM, TDE = time-dependent effect
[3] = Antioxidant activity assessed as ABTS radical scavenging activity measured after 15 mins by UV-Visible spectrophotometric based assay; assay type: functional
[4] = Antioxidant activity assessed as DPPH radical scavenging activity measured after 45 mins by UV-Visible spectrophotometric based assay; assay type: functional
[5] = Electrochemical behavior of the compound assessed as redox potential corrected toward saturated Ag/AgCl reference electrode by differential pulse voltammetry
[6] = tested on: SH-SY5Y; assay: Neuroprotective activity against TBHP-induced oxidative damage in human SH-SY5Y cells assessed as increase in cell viability at 50 uM pretreated for 24 hrs followed by TBHP stimulation measured after 4 hrs by MTT assay relative to control; assay type: functional
[7] = Apparent permeability across apical to basolateral side in human CMEC/D3 cells at 100 uM incubated up to 180 mins by UV-VIS spectroscopic method; assay type: ADME, cell-based; settings: hcmec/d3, 3 h
[8] = Cytotoxicity against human SH-SY5Y cells assessed as cell metabolic activity at 50 uM incubated for 24 hrs by MTT assay relative to control; assay type: ADME, cell-based; settings: read-out: Activity
[9] = tested on: SH-SY5Y; assay: Neuroprotective activity against TBHP-induced oxidative damage in human SH-SY5Y cells assessed as increase in cell viability at 10 uM pretreated for 24 hrs followed by TBHP stimulation measured after 4 hrs by MTT assay relative to control; assay type: functional, cell-based
[10] = Cytotoxicity against human HepG2 cells assessed as cell metabolic activity at 50 uM incubated for 48 hrs by resazurin assay relative to control; assay type: ADME, cell-based; settings: read-out: Activity
[11] = Electrochemical behavior of the compound assessed as redox potential corrected toward saturated Ag/AgCl reference electrode by cyclic voltammetry
[12] = tested on: SH-SY5Y; assay: Neuroprotective activity against H2O2-induced oxidative damage in human SH-SY5Y cells assessed as reduction in cell damage at 50 uM pretreated for 24 hrs followed by H2O2 challenge measured after 30 mins by MTT assay relative to control; assay type: functional; design: scale not given: the % may be the effect or the level left
[13] = tested on: SH-SY5Y; assay: Induction of ROS generation in human SH-SY5Y cells at 50 uM incubated for 24 hrs by DCFH-DA probe based fluorescence assay relative to control; assay type: functional
[14] = tested on: SH-SY5Y; assay: Neuroprotective activity against 6-OHDA-induced toxicity in human SH-SY5Y cells assessed as reduction in cell damage at 10 to 50 uM pretreated for 24 hrs followed by 6-OHDA challenge and measured after 24 hrs by MTT assay relative to control; assay type: functional; design: scale not given: the % may be the effect or the level left
[15] = Cytotoxicity against human HepG2 cells assessed as cell metabolic activity at 10 uM incubated for 48 hrs by resazurin assay relative to control; assay type: ADME, cell-based; settings: read-out: Activity
[16] = Cytotoxicity against human CMEC/D3 cells assessed as reduction in cell viability at 50 to 100 uM incubated for 4 hrs by MTT assay relative to control; assay type: cell-based; settings: hcmec/d3, 4 h
[17] = Cytotoxicity against human SH-SY5Y cells assessed as cell metabolic activity at 10 uM incubated for 24 hrs by MTT assay relative to control; assay type: ADME, cell-based; settings: read-out: Activity
[18] = tested on: SH-SY5Y; assay: Neuroprotective activity against H2O2-induced oxidative damage in human SH-SY5Y cells assessed as reduction in cell damage at 10 uM pretreated for 24 hrs followed by H2O2 challenge measured after 30 mins by MTT assay relative to control; assay type: functional; design: scale not given: the % may be the effect or the level left
[19] = tested on: HepG2; assay: Cytotoxicity against human HepG2 cells assessed as reduction in cell viability incubated for 48 hrs by resazurin assay relative to control; assay type: cell-based; settings: hepg2, 48 h
[20] = tested on: SH-SY5Y; assay: Cytotoxicity against human SH-SY5Y cells assessed as reduction in cell viability incubated for 24 hrs by MTT assay relative to control; assay type: cell-based
[21] = tested on: SH-SY5Y; assay: Cytotoxicity against human SH-SY5Y cells assessed as reduction in cell viability at 10 uM incubated for 24 hrs by MTT assay relative to control; assay type: cell-based
[22] = tested on: SH-SY5Y; assay: Neuroprotective activity against 6-OHDA-induced toxicity in human SH-SY5Y cells assessed as reduction in cell damage at 10 uM pretreated for 24 hrs followed by 6-OHDA challenge and measured after 24 hrs by MTT assay relative to control; assay type: functional; design: scale not given: the % may be the effect or the level left

Compound | Activity [1] [%] | IC50 [3] [µM] | IC50 [4] [µM] | Activity [5] [mV] | Activity [6] | viability at 24 h, 50 µM [8] [%] | Activity [9] | viability at 48 h, 50 µM [10] [%] | Activity [11] [mV] | Activity [13] | Activity [14] | viability at 48 h, 10 µM [15] [%] | viability at 24 h, 10 µM [17] [%] | Activity [18] | Activity [19] | Activity [20] | Activity [21] [%] | also measured
CS(=O)(=O)[O-].O=C(Cc1cc(O)c(O)c(O)c1)NCCCCCCCCCC[P+](c1ccccc1)(c1ccccc1)c1ccccc1 | > 80 | 7.6 | 20.7 | 594 | inactive | 95.3 | inactive | 93.6 | 11 | Active | 66.5 - 70.2% | 102 | 95.2 | 70.8 - 83.3% |  |  |  | permeability [2]: Tde; permeability [7]: 27.7%; Activity [12]: 70.8 - 83.3%; Activity [16]: Non-Toxic
CS(=O)(=O)[O-].O=C(CCc1cc(O)c(O)c(O)c1)NCCCCCCCCCC[P+](c1ccccc1)(c1ccccc1)c1ccccc1 | > 80 | 11.9 | 23.2 | 537 | inactive | 96.3 | inactive | 108 | 12 | Active | 66.5 - 70.2% | 106 | 92.8 | 70.8 - 83.3% |  |  |  | permeability [2]: Tde; permeability [7]: 33.1%; Activity [12]: 70.8 - 83.3%; Activity [16]: Non-Toxic
CS(=O)(=O)[O-].O=C(/C=C/c1ccc(O)c(O)c1)NCCCCCCCCCC[P+](c1ccccc1)(c1ccccc1)c1ccccc1 | > 80 | 23.5 | 25.9 | 174 | inactive | 15.9 | inactive | 8.24 | 174 | 132.5% | inactive | 9.19 | 104 |  | Dose-dependent effect | Dose-dependent effect | < 45 | 
O=C(NCCCCCCCCCC[P+](c1ccccc1)(c1ccccc1)c1ccccc1)c1ccc(O)c(O)c1.[Br-] | > 80 | 19.4 | 31 | 210 | inactive | 31.1 | inactive | 2.4 | 210 | 68.4% | inactive | 44.6 | 97.8 | inactive | Dose-dependent effect | Dose-dependent effect | < 45 | 
CS(=O)(=O)[O-].O=C(/C=C/c1cc(O)c(O)c(O)c1)NCCCCCC[P+](c1ccccc1)(c1ccccc1)c1ccccc1 | > 80 | 12.2 | 19 | 709 | inactive | 94 | inactive | 94.7 | 34 | Active |  | 105 | 104 |  |  |  |  | Activity [22]: 19.8%
CS(=O)(=O)[O-].O=C(CCc1ccc(O)c(O)c1)NCCCCCCCCCC[P+](c1ccccc1)(c1ccccc1)c1ccccc1 | > 80 | 30.1 | 59.1 | 122 | inactive | 72.5 | inactive | 8.22 | 122 | 96.2% |  | 41.8 | 96 |  | Dose-dependent effect | Dose-dependent effect | < 45 | 
CS(=O)(=O)[O-].O=C(Cc1ccc(O)c(O)c1)NCCCCCCCCCC[P+](c1ccccc1)(c1ccccc1)c1ccccc1 | > 80 | 28.1 | 56.4 | 122 | inactive | 85.7 | inactive | 10.7 | 122 | 103.4% |  | 85.2 | 94.5 |  | Dose-dependent effect | Dose-dependent effect |  | 
